From patent US12378241B2, “Pyridine derivative as FGFR and VEGFR dual inhibitors” (CGeneTech (Suzhou,China) CO., Ltd., priority 2019, dated 2025)
Counter-ions that a name gives are not always drawn. Like-named read-outs stand apart in the source and are kept apart here. Each block holds one molecule with its values, some of them ahead of it.

Key:
[1] = target: human VEGFR2 (Homo sapiens (Human), UniProt P35968); experiment: 33P isotope-labeled kinase activity test (Reaction Biology Corp), VEGFR2; type: biochemical; conditions: ATP 10 μM
Method: (§1) The IC50 value was determined using ^33P isotope-labeled kinase activity test (Reaction Biology Corp) to evaluate the inhibitory ability of the compounds to be tested on human FGFR1, FGFR2 and VEGFR2.
(§2) Buffer conditions: 20 mM Hepes (pH 7.5), 10 mM MgCl2, 1 mM EGTA, 0.02% Brij35, 0.02 mg/mL BSA, 0.1 mM Na3VO4, 2 mM DTT, 1% DMSO.
(§3) Test steps: At room temperature, the compounds to be tested were dissolved in DMSO to prepare a 10 mM solution for use. The substrate was dissolved in the newly-prepared buffer, and the kinase to be tested was added thereto and mixed well. The DMSO solution in which the compounds to be tested were dissolved was added to the above-mentioned homogeneous reaction mixture using acoustic technology (Echo 550). […] After incubating for 15 minutes, ^33P-ATP (activity: 0.01 μCi/μL, with corresponding concentration listed in Table 4) was added to the reaction mixture to start the reaction. […] The kinase activity data was expressed by comparing the kinase activity of the groups containing the compounds to be tested with that of the blank group (containing only DMSO).

[2] = target: human FGFR2 (Homo sapiens (Human), UniProt P21802); experiment: 33P isotope-labeled kinase activity test (Reaction Biology Corp), FGFR2; type: biochemical; conditions: ATP 5 μM
Method: as §1, §2, §3

[3] = target: human FGFR1 (Homo sapiens (Human), UniProt P11362); experiment: 33P isotope-labeled kinase activity test (Reaction Biology Corp), FGFR1; type: biochemical; conditions: ATP 5 μM
Method: as §1, §2, §3

[4] = Evaluation of the pharmacokinetics in female Balb/c mice (IV and PO); type: in vivo; conditions: for Tlast / AUC(0-inf) / AUC(0-t) / clearance / half-life / MRT last / Vd / bioavailability / Tmax / C0 / Cmax: female Balb/c mice; for AUC(0-inf) / AUC(0-t) / clearance / half-life / MRT last / Vd / bioavailability / Tmax / C0 / Cmax: mouse, plasma; for MRT last: read-out: MRT0-last; for Vd: read-out: Vdss; for bioavailability: read-out: F (bioavailability)
Method: […] […] About 30 μL blood samples were collected from the jugular vein at 0.0833, 0.25, 0.5, 1.0, 2.0, 4.0, 8.0, 24 h after administration and from the tail vein at 0.25, 0.5, 1.0, 2.0, 4.0, 8.0, 24 h after administration, and the blood samples were put in an anticoagulation tube containing EDTA-K2, the plasma was separated by centrifugation. The LC-MS/MS method was used to determine the blood drug concentration, the WinNonlin™ Version 6.3 (Pharsight, Mountain View, CA) pharmacokinetic software was used to calculate the relevant pharmacokinetic parameters by the non-compartmental model linear logarithmic ladder method.

[5] = test system: human gastric cancer SNU-16; experiment: Anti-tumor activity in mouse subcutaneous xenograft tumor model of human gastric cancer SNU-16; type: in vivo, nude mice; conditions: PO 10/20/40 mg/kg QD (20 mg/kg from day 8, 40 mg/kg from day 17)
Method: To study the anti-tumor effect of the compounds of the present disclosure in a mouse subcutaneous xenograft tumor model of human gastric cancer SNU-16.
Preparation of tumor tissues: SNU-16 cells were routinely cultured in an RPMI-1640 culture medium containing 10% fetal bovine serum under the conditions of 5% CO2, 37° C. and saturated humidity. According to cell growth, the cells were passaged or refilled 1 to 2 times a week with a passage ratio of 1:3 to 1:4.
SNU-16 cells at the logarithmic growth phase were collected, counted and then resuspended in a 50% serum-free RPMI-1640 culture medium and 50% Matrigel, and cell concentration was adjusted to 4×10^7 cells/mL; the cells were placed in an ice box, and the cell suspension was suctioned with a 1 mL syringe, and subcutaneously injected into the anterior right axillary of nude mice, each animal was inoculated with 200 μL (8×10^6 cells/mouse) to establish a SNU-16 xenograft model. The animal status was observed regularly, and the tumor diameter was measured with an electronic vernier caliper. […]
3) The tumor diameter was measured twice a week to calculate the tumor volume, and the animal body weight was weighed and recorded. […]
The anti-tumor efficacy of the compounds was evaluated by TGI (%) or relative tumor proliferation rate T/C (%). […] The relative tumor volume (RTV) was calculated according to the results of the tumor measurement. […]

Sequence of human FGFR2 (P21802 22-821): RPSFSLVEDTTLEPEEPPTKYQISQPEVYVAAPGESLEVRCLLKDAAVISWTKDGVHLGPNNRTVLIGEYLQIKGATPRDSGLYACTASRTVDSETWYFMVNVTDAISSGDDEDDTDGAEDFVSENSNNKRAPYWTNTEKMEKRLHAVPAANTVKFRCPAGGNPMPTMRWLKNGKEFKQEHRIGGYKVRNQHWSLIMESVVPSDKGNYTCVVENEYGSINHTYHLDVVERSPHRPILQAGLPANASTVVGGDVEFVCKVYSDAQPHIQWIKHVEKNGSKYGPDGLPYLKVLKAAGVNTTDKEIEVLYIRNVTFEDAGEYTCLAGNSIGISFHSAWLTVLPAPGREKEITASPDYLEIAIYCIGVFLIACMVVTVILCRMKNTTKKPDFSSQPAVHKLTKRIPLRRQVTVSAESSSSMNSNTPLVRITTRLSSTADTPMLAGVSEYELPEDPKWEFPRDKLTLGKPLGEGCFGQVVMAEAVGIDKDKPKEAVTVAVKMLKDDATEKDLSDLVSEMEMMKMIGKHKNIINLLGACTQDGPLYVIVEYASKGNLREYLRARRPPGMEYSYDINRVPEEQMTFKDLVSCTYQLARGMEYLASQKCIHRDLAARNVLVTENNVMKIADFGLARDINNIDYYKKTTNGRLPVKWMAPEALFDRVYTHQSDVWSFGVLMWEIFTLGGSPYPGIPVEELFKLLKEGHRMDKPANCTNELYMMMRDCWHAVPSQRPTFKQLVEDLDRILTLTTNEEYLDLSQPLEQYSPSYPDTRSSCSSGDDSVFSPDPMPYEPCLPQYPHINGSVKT
Sequence of human FGFR1 (P11362 22-822): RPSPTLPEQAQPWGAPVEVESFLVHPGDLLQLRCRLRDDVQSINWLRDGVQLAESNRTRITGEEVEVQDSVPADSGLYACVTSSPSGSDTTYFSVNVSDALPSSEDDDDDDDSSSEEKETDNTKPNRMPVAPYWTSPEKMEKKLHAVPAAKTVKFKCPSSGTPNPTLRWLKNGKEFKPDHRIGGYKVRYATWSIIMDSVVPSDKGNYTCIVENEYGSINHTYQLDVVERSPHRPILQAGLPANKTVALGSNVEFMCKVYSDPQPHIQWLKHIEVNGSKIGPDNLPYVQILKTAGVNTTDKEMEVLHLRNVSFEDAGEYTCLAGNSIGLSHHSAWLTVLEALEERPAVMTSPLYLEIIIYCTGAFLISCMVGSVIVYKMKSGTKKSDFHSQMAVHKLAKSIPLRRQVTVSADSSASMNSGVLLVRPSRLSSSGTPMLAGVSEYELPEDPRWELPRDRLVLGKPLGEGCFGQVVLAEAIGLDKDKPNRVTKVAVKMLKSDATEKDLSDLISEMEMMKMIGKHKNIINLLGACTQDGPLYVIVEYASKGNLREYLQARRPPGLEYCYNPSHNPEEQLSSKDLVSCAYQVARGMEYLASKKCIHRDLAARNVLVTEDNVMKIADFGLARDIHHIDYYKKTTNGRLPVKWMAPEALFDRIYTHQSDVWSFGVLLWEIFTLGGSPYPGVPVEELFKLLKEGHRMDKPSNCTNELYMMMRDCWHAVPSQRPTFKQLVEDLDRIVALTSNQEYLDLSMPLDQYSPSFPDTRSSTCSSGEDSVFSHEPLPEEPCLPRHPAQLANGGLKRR
Sequence of human VEGFR2 (P35968 20-1356): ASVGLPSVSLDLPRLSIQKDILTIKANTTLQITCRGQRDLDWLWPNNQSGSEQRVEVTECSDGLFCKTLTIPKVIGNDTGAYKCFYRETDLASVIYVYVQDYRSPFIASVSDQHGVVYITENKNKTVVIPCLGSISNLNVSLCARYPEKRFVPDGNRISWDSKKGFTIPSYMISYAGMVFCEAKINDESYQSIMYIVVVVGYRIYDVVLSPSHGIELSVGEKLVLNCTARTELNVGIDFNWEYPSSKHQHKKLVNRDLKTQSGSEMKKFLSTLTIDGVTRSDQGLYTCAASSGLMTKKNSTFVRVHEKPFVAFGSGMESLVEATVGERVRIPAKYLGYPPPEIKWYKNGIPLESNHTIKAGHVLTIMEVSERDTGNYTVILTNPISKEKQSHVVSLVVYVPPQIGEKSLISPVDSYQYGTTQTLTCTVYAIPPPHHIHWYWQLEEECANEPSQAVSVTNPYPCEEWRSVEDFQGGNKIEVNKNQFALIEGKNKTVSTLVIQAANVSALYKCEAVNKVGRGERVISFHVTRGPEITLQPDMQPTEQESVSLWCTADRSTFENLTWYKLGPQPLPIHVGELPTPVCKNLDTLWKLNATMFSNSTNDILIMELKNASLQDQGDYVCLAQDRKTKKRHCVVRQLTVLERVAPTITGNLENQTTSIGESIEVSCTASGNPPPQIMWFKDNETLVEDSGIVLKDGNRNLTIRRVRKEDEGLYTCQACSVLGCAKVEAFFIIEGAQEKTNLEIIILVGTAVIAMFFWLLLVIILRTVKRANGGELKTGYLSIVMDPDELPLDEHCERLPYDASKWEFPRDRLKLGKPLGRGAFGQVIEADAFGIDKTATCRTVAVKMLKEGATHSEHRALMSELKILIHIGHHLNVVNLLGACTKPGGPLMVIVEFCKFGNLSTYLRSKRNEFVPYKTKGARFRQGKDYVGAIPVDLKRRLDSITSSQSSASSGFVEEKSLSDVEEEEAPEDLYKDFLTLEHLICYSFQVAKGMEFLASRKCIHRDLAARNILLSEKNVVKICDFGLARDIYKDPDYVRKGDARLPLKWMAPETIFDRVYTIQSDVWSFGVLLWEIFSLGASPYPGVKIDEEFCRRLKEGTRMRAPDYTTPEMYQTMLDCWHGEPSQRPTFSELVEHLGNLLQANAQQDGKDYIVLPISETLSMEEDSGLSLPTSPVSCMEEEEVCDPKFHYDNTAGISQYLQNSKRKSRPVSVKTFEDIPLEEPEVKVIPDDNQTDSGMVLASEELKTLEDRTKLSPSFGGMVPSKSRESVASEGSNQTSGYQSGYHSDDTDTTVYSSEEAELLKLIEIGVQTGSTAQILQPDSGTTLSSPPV

Structure (SMILES): Cn1cc(-c2ccn3c(-c4cc(NCC5COC(C)(C)O5)nc(-c5ccc(F)cc5F)c4)cnc3c2)cn1 (stereo not drawn) [Compound 11]
- IC50 [1]: 7.57 nM
- IC50 [2]: 2.27 nM

Structure (SMILES): Cn1cc(-c2ccn3c(-c4cc(NS(C)(=O)=O)cc(-c5ccc(F)cc5F)n4)cnc3c2)cn1 [Formate of compound C, reference compound]
- IC50 [1]: 5580 nM
- IC50 [3]: 724 nM

Structure (SMILES): Cn1cc(-c2ccc3c(c2)ncn3-c2cc(NS(=O)(=O)C3CC3)cc(-c3ccc(F)cc3F)c2)cn1 [Trifluoroacetate of compound A, reference compound]
- Tlast ([4]; IV 0.2 mg/kg): 4.00 h
- Tlast ([4]; PO 1 mg/kg): 8.00 h
- AUC(0-inf) ([4]; IV 0.2 mg/kg): 0.717 µM·h
- AUC(0-t) ([4]; IV 0.2 mg/kg): 0.663 µM·h
- clearance ([4]; IV 0.2 mg/kg): 9.2 mL/min/kg
- half-life ([4]; IV 0.2 mg/kg): 64.8 min
- MRT last ([4]; IV 0.2 mg/kg): 1.21 h
- Vd ([4]; IV 0.2 mg/kg): 0.85 L/kg
- bioavailability ([4]; PO 1 mg/kg vs IV 0.2 mg/kg): 40.3%
- AUC(0-inf) ([4]; PO 1 mg/kg): 1.44 µM·h
- AUC(0-t) ([4]; PO 1 mg/kg): 1.41 µM·h
- Tmax ([4]; PO 1 mg/kg): 1 h
- half-life ([4]; PO 1 mg/kg): 84 min
- MRT last ([4]; PO 1 mg/kg): 2.76 h
- C0 ([4]; IV 0.2 mg/kg): 563 nM
- Cmax ([4]; PO 1 mg/kg): 469 nM
- IC50 [3]: 22.3 nM

Structure (SMILES): Cn1cc(-c2ccc3c(c2)ncn3-c2cc(NS(C)(=O)=O)cc(-c3ccc(F)cc3F)c2)cn1 [Trifluoroacetate of compound B, reference compound]
- IC50 [1]: 11.8 nM
- IC50 [2]: 22.6 nM

Structure (SMILES): Cc1cc(F)ccc1-c1cc(-c2cnc3cc(-c4cnn(C)c4)ccn23)cc(NS(=O)(=O)C2CC2)n1 [Trifluoroacetate salt of compound 2]
- IC50 [1]: 67.3 nM
- IC50 [2]: 46.1 nM

Structure (SMILES): CCOC(=O)Nc1cc(-c2cnc3cc(-c4cnn(C)c4)ccn23)cc(-c2ccc(F)cc2F)n1 [Trifluoroacetate salt of compound 3]
- IC50 [1]: 1.99 nM
- IC50 [2]: 3.26 nM

Structure (SMILES): CCOC(=O)Nc1cc(-c2cnc3cc(-c4cnn(C)c4)ccn23)cc(-c2ccc(F)cc2C)n1 [Trifluoroacetate salt of compound 4]
- IC50 [1]: 24.3 nM
- IC50 [2]: 45.2 nM

Structure (SMILES): CCOC(=O)Nc1cc(-c2cnc3cc(-c4cnn(C)c4C)ccn23)cc(-c2ccc(F)cc2F)n1 [Trifluoroacetate salt of compound 12]
- IC50 [1]: 9.27 nM
- IC50 [2]: 19.4 nM

Structure (SMILES): Cc1c(-c2ccn3c(-c4cc(NS(C)(=O)=O)nc(-c5ccc(F)cc5F)c4)cnc3c2)cnn1C [Trifluoroacetate salt of compound 13]
- IC50 [1]: 11.1 nM

The next lines start with results.

- IC50 [1]: 3.73 nM
- IC50 [2]: 4.92 nM
Structure (SMILES): Cn1cc(-c2ccn3c(-c4cc(NCC(C)(C)O)nc(-c5ccc(F)cc5F)c4)cnc3c2)cn1 [Compound 9]

- IC50 [2]: 17.1 nM
Structure (SMILES): Cn1cc(-c2ccn3c(-c4cc(NC5CCOCC5)nc(-c5ccc(F)cc5F)c4)cnc3c2)cn1 [Compound 10]

- Tlast ([4]; IV 2 mg/kg): 8.00 h
- AUC of intravenous drug exposure compared with the trifluoroacetate of control compound A ([4]; IV, mice): doubled
- Tlast ([4]; PO 10 mg/kg): 8.00 h
- oral absorption drug exposure compared with the trifluoroacetate of control compound A ([4]; PO, mice): nearly doubled
- AUC(0-inf) ([4]; IV 2 mg/kg): 13.7 µM·h
- AUC(0-t) ([4]; IV 2 mg/kg): 13.3 µM·h
- clearance ([4]; IV 2 mg/kg): 4.82 mL/min/kg
- half-life ([4]; IV 2 mg/kg): 96 min
- MRT last ([4]; IV 2 mg/kg): 2.07 h
- Vd ([4]; IV 2 mg/kg): 0.667 L/kg
- bioavailability ([4]; PO 10 mg/kg vs IV 2 mg/kg): 39.4%
- AUC(0-inf) ([4]; PO 10 mg/kg): 26.9 µM·h
- AUC(0-t) ([4]; PO 10 mg/kg): 23.6 µM·h
- Tmax ([4]; PO 10 mg/kg): 1 h
- half-life ([4]; PO 10 mg/kg): 150 min
- MRT last ([4]; PO 10 mg/kg): 3.12 h
- C0 ([4]; IV 2 mg/kg): 7530 nM
- Cmax ([4]; PO 10 mg/kg): 5300 nM
- IC50 [1]: 3.82 nM
- IC50 [3]: 4.55 nM
- IC50 [2]: 2.86 nM
Structure (SMILES): Cn1cc(-c2ccn3c(-c4cc(NS(=O)(=O)C5CC5)nc(-c5ccc(F)cc5F)c4)cnc3c2)cn1 [Trifluoroacetate salt of compound 1]
- plasma clearance rate compared with the trifluoroacetate of control compound A ([4]; IV, mice): nearly decreased the plasma clearance rate by 1 time

- IC50 [1]: 8.09 nM
- IC50 [2]: 7.36 nM
Structure (SMILES): CCS(=O)(=O)Nc1cc(-c2cnc3cc(-c4cnn(C)c4)ccn23)cc(-c2ccc(F)cc2F)n1 [Trifluoroacetate salt of compound 6]

- Tlast ([4]; IV 0.2 mg/kg): 4.00 h
- Tlast ([4]; PO 1 mg/kg): 8.00 h
- AUC(0-inf) ([4]; IV 0.2 mg/kg): 0.871 µM·h
- AUC(0-t) ([4]; IV 0.2 mg/kg): 0.81 µM·h
- clearance ([4]; IV 0.2 mg/kg): 7.96 mL/min/kg
- half-life ([4]; IV 0.2 mg/kg): 58.1 min
- MRT last ([4]; IV 0.2 mg/kg): 1.08 h
- Vd ([4]; IV 0.2 mg/kg): 0.661 L/kg
- bioavailability ([4]; PO 1 mg/kg vs IV 0.2 mg/kg): 59.3%
- AUC(0-inf) ([4]; PO 1 mg/kg): 2.58 µM·h
- AUC(0-t) ([4]; PO 1 mg/kg): 2.53 µM·h
- Tmax ([4]; PO 1 mg/kg): 1 h
- half-life ([4]; PO 1 mg/kg): 79.8 min
- MRT last ([4]; PO 1 mg/kg): 2.35 h
- C0 ([4]; IV 0.2 mg/kg): 735 nM
- Cmax ([4]; PO 1 mg/kg): 973 nM
- IC50 [1]: 2.94 nM
- IC50 [2]: 3.22 nM
Structure (SMILES): Cn1cc(-c2ccn3c(-c4cc(NS(C)(=O)=O)nc(-c5ccc(F)cc5F)c4)cnc3c2)cn1 [Trifluoroacetate salt of compound 7]
- T/C (%) (relative tumor proliferation rate) D25 [5]: 31%
- TGI (%) (tumor growth inhibition rate) D25 [5]: 69%

- IC50 [1]: 14.7 nM
- IC50 [2]: 7.18 nM
Structure (SMILES): CCCS(=O)(=O)Nc1cc(-c2cnc3cc(-c4cnn(C)c4)ccn23)cc(-c2ccc(F)cc2F)n1 [Trifluoroacetate salt of compound 8]
